# “Also recorded” adds a separate entry of the source.
# Assay: Dose-escalation study of Compound 1 pharmacokinetics in subjects with advanced malignancies (tablets of Formulations 1 and/or 3, fasted; food effect cohort)
# Format: in vivo, human
# Details: for tmax: median
# Description: Thus, Cmax, Cmin and Tmax were taken directly from the observed plasma concentration data or imputed in some cases. The terminal-phase disposition rate constant (λz) was estimated using a log-linear regression of the concentration data in the terminal disposition phase, and t1/2 was estimated as ln(2)/λz. AUC0-t and AUC0-τ was estimated using the linear trapezoidal rule for increasing concentrations and the log-trapezoidal rule for decreasing concentrations. At the PK steady-state, the apparent oral-dose clearance, CL/F, was estimated as Dose/AUC0-τ, and Vz/F was estimated as Dose/[AUC0-τ*λz].
# The log-transformed pharmacokinetic parameters were compared among the BID dose groups using a 1-factor ANOVA with the factor for dose. Dose-dependent exposure parameters (Cmax and AUC) were normalized to a common dose before statistical comparisons were made.
# The oral bioavailability (F) and systemic clearance (CL) were estimated. […] This method of estimation assumes near complete oral absorption and the liver being the primary organ for drug clearance. […] The above equation was modified to incorporate the term of Fa to accommodate an incomplete absorption: CL=(QH*Fa*CL/F)/(QH+Fa*CL/F).
# [1] = 50 mg BID, steady state, geometric mean
# [2] = 50 mg BID, steady state, mean ± SD
# [3] = 50 mg QD, steady state, mean ± SD
# [4] = 100 mg BID, steady state, geometric mean
# [5] = 100 mg BID, steady state, mean ± SD
# [6] = 300 mg BID, steady state, geometric mean
# [7] = 300 mg BID, steady state, mean ± SD
# [8] = 400 mg BID, steady state, geometric mean
# [9] = 400 mg BID, steady state, mean ± SD
# [10] = 500 mg BID, steady state, geometric mean
# [11] = 500 mg BID, steady state, mean ± SD
# [12] = 600 mg BID, steady state, geometric mean
# [13] = 600 mg BID, steady state, mean ± SD
# [14] = 700 mg BID, steady state, geometric mean
# [15] = 700 mg BID, steady state, mean ± SD
# [16] = BID doses 50 to 700 mg, steady state
structure (smiles),measurement,setting,value
"NS(=O)(=O)NCCNc1nonc1C(=NO)Nc1ccc(F)c(Br)c1 [Compound 1, 4-({2-[(aminosulfonyl)amino]ethyl}amino)-N-(3-bromo-4-fluorophenyl)-N′-hydroxy-1,2,5-oxadiazole-3-carboximidamide]",CL/F,[1],40.3 L/h
same,Cmax,[1],715 nM
same,AUC0-τ,[2],3.05 ± 1.36 µM·h
same,CL/F,[2],43.3 ± 19.2 L/h
same,Cmax,[2],742 ± 212 nM
same,Cmin,[2],84 ± 63 nM
same,t1/2,[2],2.4 ± 0.56 h
same,tmax,"50 mg BID, steady state",2.0 h
same,trough concentrations,50 mg QD,low and generally not quantifiable
same,CL/F,"50 mg QD, steady state, geometric mean",73.0 L/h
same,AUC(0-t),[3],1.39 ± 0.256 µM·h
same,CL/F,[3],73.8 ± 14.7 L/h
same,Cmin,[3],0 ± 0 nM
same,t1/2,[3],2.4 ± 0.26 h
same,tmax,"50 mg QD, steady state",2.0 h
same,CL/F,[4],42.4 L/h
same,Cmin,[4],171 nM
same,AUC0-τ,[5],5.77 ± 2.34 µM·h
same,CL/F,[5],45.8 ± 20.9 L/h
same,Cmax,[5],1230 ± 348 nM
same,Cmin,[5],201 ± 111 nM
same,t1/2,[5],3.3 ± 0.75 h
same,tmax,"100 mg BID, steady state",2.0 h
same,CL/F,[6],70.2 L/h
same,Cmin,[6],251 nM
same,t1/2,[6],3.5 h
same,AUC0-τ,[7],9.78 ± 0.86 µM·h
same,CL/F,[7],70.4 ± 6.19 L/h
same,Cmax,[7],2480 ± 515 nM
same,Cmin,[7],287 ± 146 nM
same,t1/2,[7],3.9 ± 2.1 h
same,tmax,"300 mg BID, steady state",2.0 h
same,CL/F,[8],51.8 L/h
same,Cmin,[8],523 nM
same,AUC0-τ,[9],19.6 ± 7.43 µM·h
same,CL/F,[9],62.3 ± 52.3 L/h
same,Cmax,[9],4390 ± 2020 nM
same,Cmin,[9],624 ± 339 nM
same,t1/2,[9],2.7 ± 0.62 h
same,tmax,"400 mg BID, steady state",2.0 h
same,CL/F,[10],58.0 L/h
same,Cmin,[10],562 nM
same,AUC0-τ,[11],20.6 ± 6.82 µM·h
same,CL/F,[11],60.5 ± 19.1 L/h
same,Cmin,[11],604 ± 260 nM
same,t1/2,[11],2.4 ± 0.37 h
same,tmax,"500 mg BID, steady state",2.0 h
same,effect of a high-fat meal on plasma exposures,"600 mg BID, 1-way crossover ANOVA",not statistically significant
same,tmax,"600 mg BID, food effect cohort, Fasted",2.0 h
same,decrease of geometric mean Cmax by a high-fat meal,"600 mg BID, steady state",approximately 10%
same,increase of geometric mean AUC0-12h by a high-fat meal,"600 mg BID, steady state",22%
same,CL/F,[12],63.5 L/h
same,Cmin,[12],731 nM
same,CL/F,[13],66.4 ± 18.6 L/h
same,Cmin,[13],932 ± 704 nM
same,t1/2,[13],3.3 ± 0.97 h
same,tmax,"600 mg BID, steady state",2.0 h
same,highest steady-state mean unbound daily AUC0-24h (=2×AUC0-12h),700 mg BID,2.2 µM·h
same,CL/F,[14],47.2 L/h
same,Cmin,[14],1260 nM
same,AUC0-τ,[15],35.8 ± 15.5 µM·h
same,CL/F,[15],49.5 ± 17.1 L/h
same,Cmax,[15],6230 ± 2090 nM
same,Cmin,[15],1320 ± 417 nM
same,dose proportionality of exposures (Cmax and AUC),50 to 700 mg BID,slightly less than proportional to dose; also recorded: less than proportional to dose
same,"exponent β of power-function regression, AUC0-12h vs Dose",[16],0.843
same,"exponent β of power-function regression, Cmax vs Dose",[16],0.779

# — US20180353483A1, “PHARMACEUTICAL COMPOSITIONS AND METHODS FOR INDOLEAMINE, 2, 3-DIOXYGENASE INHIBITION AND INDICATIONS THEREFOR” (Incyte Corporation, priority 2015, published 2018)
